Measurements reported in US20220117964A1, “COMBINATION OF FAK INHIBITOR AND BTK INHIBITOR FOR TREATING A DISEASE” (ASCENTAGE PHARMA (SUZHU) CO., LTD., priority 2019, published 2022).
Where “and” joins values, the source holds several entries; their conditions need not be identical. Identical values can stand only once.

Columns and labels:
[1] = test system: YES-2 cells; test: Colony formation assay; format: cell-based; conditions: 0.5 μM Compound 5, 0.25 μM Ibrutinib or both, 12 days
Method: Growth inhibition was detected by colony formation assay. ESCC cells were inoculated in 6-well plates at about 500 cells/well, and treated with different inhibitors or DMSO, and then replaced with fresh medium containing with different inhibitors or DMSO every 3 to 4 days. The cells were stained with crystal violet (V5265, Sigma, St Louis, Mo., USA) on day 12. After washing twice with PBS, the cells were fixed with 1% paraformaldehyde and incubated for 15 minutes at room temperature. The cells were then washed twice with PBS and stained with 0.5% crystal violet for 15 minutes at room temperature.
(§1) (1) The experimental method was as described in the items (1), (2), (5) of Example 2. […] The changes in signaling pathway of related proteins were determined by Western blotting assay.

[2] = test system: phosphorylated-AKT (p-AKT, Ser397); test: Western blot, KYSE-150 and KYSE-520 cells; format: cell-based; conditions: KYSE-150 (1 μM Compound 5, 1 μM Ibrutinib) and KYSE-520 (1 μM Compound 5, 0.5 μM Ibrutinib), 24 hours
Method: The cells were lysed on ice with 1× cell lysis buffer containing 1% protease inhibitor (PMSF) and 1% phosphokinase inhibitor for 30 minutes, centrifuged at 12000 rpm and 4° C. for 15 minutes, and the supernatant protein lysate was collected. The protein concentration was measured by BCA protein concentration detection kit. The cell protein lysates (20 to 50 μg) were separated using 8-12% SDS-PAGE electrophoresis. The separated proteins were transferred to a PVDF membrane. The PVDF membrane was blocked with 5% BSA buffer at room temperature for 30 minutes to 1 hour, and then incubated overnight on a 4° C. shaker with 1× TBST containing primary antibody. The redundant primary antibody was eluted, and the membrane was washed 3 times with 1× TBST, 5 to 10 minutes for each time. The protein band membrane was incubated with horseradish peroxidase-labeled secondary antibody dilution for 1 hour at room temperature, and the membrane was washed 3 times with 1× TBST, 5 to 10 minutes for each time. The signal generation and detection were performed using an ECL chemiluminescence ultrasensitive colorimetric kit and a chemiluminescence imaging system. […]
as §1

[3] = test system: human KYSE-150 mouse xenograft tumor model; test: Human KYSE-150 mouse xenograft tumor model, antitumor effect; format: in vivo, BALB/c Nude mice; conditions: for RTV on day 12 after administration (mean ± standard error): day 12 (last dose); for RTV on day 12 after administration (mean ± standard error) / T/C on day 12 after administration (%) / RTV on day 18 after administration (mean ± standard error) / T/C on day 18 after administration (%): Compound 5 100 mg/kg p.o., Ibrutinib 25 mg/kg i.p.; for RTV on day 12 after administration (mean ± standard error) / RTV on day 18 after administration (mean ± standard error): qd × 5d, withdrawal 2 days/week × 2 weeks; for Tumor state on day 12 after administration: CR: day 12, animals with complete regression of tumor / group; for Tumor state on day 12 after administration: PR: day 12, animals with partial regression of tumor / group; for Tumor state on day 12 after administration: SD: day 12, animals with stable disease / group; for RTV on day 18 after administration (mean ± standard error): day 18 (after drug withdrawal); for Tumor state on day 18 after administration: CR: day 18, animals with complete regression of tumor / group; for Tumor state on day 18 after administration: PR: day 18, animals with partial regression of tumor / group; for Tumor state on day 18 after administration: SD: day 18, animals with stable disease / group
Method: The animals used were BALB/c Nude mice, 4-6 weeks old, female. Animal body weight was 14-16±20% g. The experimental animals were provided by Beijing Weitonglihua Experimental Animal Technology Co., Ltd. (Vital River Laboratories, VRL, license number: SOCK (J) 2016-0011). Animal certificate number: 11400700325794.
Compound 5 was intragastrically administered at a dose of 100 mg/kg and a volume of 200 μl. The preparation for the administration was prepared every 3 days and stored at 4° C. when it has not been in use. The formulation and use of the preparation were carried out under sterile conditions. […] The preparation for the administration was prepared every 3 days and stored at 4° C. The formulation and use of the preparation were carried out under sterile conditions.
Forty immunodeficiency mice were subcutaneously injected with 5×10^6 KYSE-150 cells suspended in 100 μl PBS in the right armpit to establish a xenograft tumor model. […] When the tumor reached an appropriate size (50 to 100 mm^3), the animals were randomly assigned according to the tumor volume, in which the difference in tumor volume among groups should be less than 10% of the mean value, and at last 7 mice were assigned to each group, and the administration was star ted on the day of group assignment (i.e., d1).
A subcutaneous immunodeficient-mice xenograft tumor model of human tumor was established by cell inoculation method: tumor cells in logarithmic growth phase were collected, counted and resuspended in 1×PBS, and the concentration of cell suspension was adjusted to 5×10^7/mL. 1 mL syringe ([…]) was used to inoculate the tumor cells subcutaneously on the right back of immunodeficient mice, 5×10^6/0.1 mL/mouse. All animal experiments were performed strictly in accordance with the guidelines for Institutional Animal Care and Use Committee (IACUC) of Sun Yat-sen University and Suzhou Yasheng Pharmaceutical Co., Ltd. The calculation of related parameters referred to China NMPA “Technical Guidelines for Nonclinical Research of Cytotoxic Antitumor Drugs”.
Animal body weight and tumor size were measured twice per week during the experiment. The growth of tumor was periodically observed, and when the tumor grew to an average volume of 50 to 100 mm^3, the mice were randomly divided into groups for administration according to tumor size and body weight. The status and deaths of the animals were observed every day. The routine monitoring included the effects of tumor growth and drug administration on the normal behaviors of animals, specially included the activity of experimental animals, food and water consumption, weight gain or loss, eyes, hair, and other abnormal conditions. The deaths and clinical symptoms observed during the experiment were recorded in the raw data. The entire operation for administration, measurement of mouse weight and tumor volume was performed in a clean bench. According to the requirements of the experimental protocol, when the long diameter of tumor was greater than 20 mm, the experimental end point was reached and the mice were euthanized. Tumor tissues were collected, weighed and photographed for recording.
Tumor volume (TV) was calculated as: TV=a×b^2/2, wherein a and b represented the measured length and width of tumor, respectively. The relative tumor volume (RTV) was calculated as: RTV=Vt/V1, wherein V1 represented the tumor volume at the time of group assignment and administration, and Vt represented the tumor volume on a certain day after administration.

Structure (SMILES): Cc1cc(Nc2ncc(Cl)c(Nc3ccccc3S(=O)(=O)C(C)C)n2)c(OC(C)C)cc1C1=CCN(C2CCOCC2)CC1 [Compound 5, 5-chloro-N^2-(2-isopropoxy-5-methyl-4-(1-(tetrahydro-2H-pyran-4-yl)-1,2,3,6-tetrahydropyridin-4-yl)phenyl)-N^4-(2-(isopropylsulfonyl)phenyl)pyrimidine-2,4-diamine]
- inhibitory effect on cell clone formation [1]: stronger inhibitory effects
- protein expression level of phosphorylated-AKT (p-AKT, Ser397) [2]: significantly decrease
- RTV on day 12 after administration (mean ± standard error) [3]: 1.4
- Tumor state on day 12 after administration: CR [3]: 0/7 CR
- Tumor state on day 12 after administration: PR [3]: 1/7 and 1/7 PR
- Tumor state on day 12 after administration: SD [3]: 1/7 and 1/7 SD
- T/C on day 12 after administration (%) [3]: 49.8%
- RTV on day 18 after administration (mean ± standard error) [3]: 3.0
- Tumor state on day 18 after administration: CR [3]: 0/7 CR
- Tumor state on day 18 after administration: PR [3]: 1/7 and 1/7 PR
- Tumor state on day 18 after administration: SD [3]: 0/7 SD
- T/C on day 18 after administration (%) [3]: 55.8%

Structure (SMILES): C=CC(=O)N1CCC[C@@H](n2nc(-c3ccc(Oc4ccccc4)cc3)c3c(N)ncnc32)C1 [Ibrutinib]
- RTV on day 12 after administration (mean ± standard error) [3]: 1.4
- Tumor state on day 12 after administration: CR [3]: 0/7 CR
- Tumor state on day 12 after administration: PR [3]: 1/7 and 1/7 PR
- Tumor state on day 12 after administration: SD [3]: 1/7 and 1/7 SD
- T/C on day 12 after administration (%) [3]: 48.6%
- RTV on day 18 after administration (mean ± standard error) [3]: 3.8
- Tumor state on day 18 after administration: CR [3]: 0/7 CR
- Tumor state on day 18 after administration: PR [3]: no animal and 0/7 PR
- Tumor state on day 18 after administration: SD [3]: no animal and 0/7 SD
- Tumor state on day 18 after administration: remission rate, % ([3]; day 18, remission including CR, PR and SD): (0%)
- T/C on day 18 after administration (%) [3]: 70.2%
